Source: patent publication EP4759807A1, “PROTEOLYSIS TARGETING CHIMERA COMPOUND FOR DEGRADING IRAK4 AND USE THEREOF” (Shenzhen Zhongge Biological Technology Co., Ltd., priority 2023, dated 2025)
Where two headings read alike, the source gives them in different places.

Target: T1, IRAK4 (Homo sapiens, UniProt Q9NWZ3)
T1 sequence (Q9NWZ3 1-460): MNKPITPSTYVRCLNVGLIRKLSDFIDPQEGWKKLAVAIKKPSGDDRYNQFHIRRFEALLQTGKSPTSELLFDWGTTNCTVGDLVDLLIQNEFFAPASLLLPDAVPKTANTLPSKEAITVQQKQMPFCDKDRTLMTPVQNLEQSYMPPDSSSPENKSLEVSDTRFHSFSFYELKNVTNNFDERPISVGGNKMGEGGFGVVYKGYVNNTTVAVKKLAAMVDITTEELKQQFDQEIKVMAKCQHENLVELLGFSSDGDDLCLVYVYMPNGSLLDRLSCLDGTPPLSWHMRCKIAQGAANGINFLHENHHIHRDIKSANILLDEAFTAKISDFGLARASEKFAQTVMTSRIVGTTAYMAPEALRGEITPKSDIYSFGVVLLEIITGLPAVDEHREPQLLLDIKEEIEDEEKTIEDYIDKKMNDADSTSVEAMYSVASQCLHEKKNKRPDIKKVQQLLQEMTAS
Assay: WB detection of proteolysis (Western Blot, THP-1 cells)
Format: cell-based
Details: Western Blot, THP-1 cells, 24 h; for DC50: read-out: DC50
Description: The degradation level of IRAK4 in THP-1 cells was detected by Western Blot technology. […] 1000X gradient dilution stock of the compound was prepared, with the highest concentration set at 300 µM. The dilution was carried out using DMSO in a 1:3 dilution factor, yielding a total of 9 concentrations. 1000X gradient dilutions of the compound were added to a 12-well plate, with 1 µL per well. Incubation was performed under conditions of 37°C and 5% CO2 for 24 h, and the cells were collected into 2 mL of centrifuge tubes and centrifuged at 5000 rpm for 5 min, and the supernatant was removed. 100 µL of RIPA lysis buffer (Beyotime, P0013C) was added and mixed uniformly, then the cells were lysed on ice for 10 min, centrifuged at 4°C at 14000 rpm for 10 min, and the supernatant was collected. Protein content was determined with BCA (Solarbio, PC0020-10*50T). 75 µL of the supernatant was taken, and 25 µL of NuPAGE LDS Sample Buffer (4X) (Thermo B0007) was added to each tube (5% β-mercaptoethanol was added before use) to prepare samples, and the samples were boiled in a metal bath at 100°C for 5 min. […] 1x NuPAGE™ MOPS SDS electrophoresis buffer (20X) (Invitrogen, NP0001) was prepared, and the electrophoresis instrument was set to a constant current of 300 mA for 100 min, and the protein was transferred to a PVDF membrane (Millipore, IPVH00010). […] The membrane was washed three times with 1x TBST (Elabscience E-BC-R335) the next day, each time for 5 min. […] The membrane was washed three times with TBST, each time for 5 min. The Odyssey imaging system Li-cor Odyssey CLx was used to detect signals and analyze data. GraphPad (Prism 9.3) software was used to perform analysis for data, and non-linear fitting (non-liner inhibitor (Bell-shaped)) and four parameters (4 parameter) were used, and the parameters was as follows: Span1 = Plateau1−Dip [formula] Span2 = Plateau2−Dip [formula] Section1 = Span1/(1+10^(∧)((LogEC50_1−X)*nH1)) [formula] Section2 = Span2/(1+10^(∧)((X−LogEC50_2)*nH2)) [formula]
The equation was as follows: Y=Dip+Section1+Section2.

Compound	DC50 [nM]	Dmax (read-out: Dmax) [%]	Dmax
Cn1c(=O)n(C2CCC(=O)NC2=O)c2cccc(N3CCCN(C[C@H]4CC[C@H](n5cc(-n6cc(-c7ccc8cc(C(N)=O)cnn78)nn6)c(C(F)F)n5)CC4)CC3)c21 (relative stereo) [Example 289, 7-(1-(3-(difluoromethyl)-1-((1R,4R)-4-((4-(1-(2,6-dioxopiperidin-3-yl)-3-methyl-2-oxo-2,3-dihydro-1H-benzoimidazol-4-yl)-1,4-diazepan-1-yl)methyl)cyclohexyl)-1H-pyrazol-4-yl)-1H-1,2,3-triazol-4-yl)pyrrolo[1,2-b]pyridazine-3-carboxamide]	< 10	< 60	
Cn1nc(N2CCC(=O)NC2=O)c2ccc(N3CCC(N4CCN(C[C@H]5CC[C@H](n6cc(-n7cc(-c8cnn9ccc(N[C@@H]%10CCCC[C@@H]%10O)nc89)nn7)c(C(F)F)n6)CC5)CC4)CC3)cc21 [Example 161]	> 30	< 60	
C[C@H]1CN(C[C@H]2CC[C@H](n3cc(-n4cc(-c5cnn6ccc(N[C@@H]7CCCC[C@@H]7O)nc56)nn4)c(C(F)F)n3)CC2)CCN1C1CCN(c2cccc3c2n(C)c(=O)n3C2CCC(=O)NC2=O)CC1 (some centres unmarked) [Example 166]	< 10	> 70	
Cn1c(=O)n(C2CCC(=O)NC2=O)c2cccc(N3CCC(CN4CCC5(CCC(n6cc(-n7cc(-c8cnn9ccc(N[C@@H]%10CCCC[C@@H]%10O)nc89)nn7)c(C(F)F)n6)CC5)CC4)CC3)c21 (stereo partly drawn) [Example 171, 3-(4-(4-((9-(3-(difluoromethyl)-4-(4-(5-(((1R,2S)-2-hydroxycyclohexyl)amino)pyrazolo[1,5-a]pyrimidin-3-yl)-1H-1,2,3-triazol-1-yl)-1H-pyrazol-1-yl]-3-azaspiro[5.5]undecan-3-yl)methyl)piperidin-1-yl)-3-methyl-2-oxo-2,3-dihydro-1H-benzo[d]imidazol-1-yl)piperidine-2,6-dione]	< 10	> 70	
Cn1c(=O)n(C2CCC(=O)NC2=O)c2cccc(N3CCC(CN4CCC5(CCC(n6cc(-n7cc(-c8ccc9cc(C(N)=O)cnn89)nn7)c(C(F)F)n6)CC5)CC4)CC3)c21 (centres unmarked) [Example 172]	< 10	> 70	
Cn1c(=O)n(C2CCC(=O)NC2=O)c2cccc(N3CCC(N4CCN(C[C@H]5CC[C@H](n6cc(-n7cc(-c8cnn9ccc(N%10CCOC[C@@H]%10CO)nc89)nn7)c(C(F)F)n6)CC5)CC4)CC3)c21 (some centres unmarked) [Example 173]	< 10	> 70	
Cn1c(=O)n(C2CCC(=O)NC2=O)c2cccc(N3CCC4(CCN(C[C@H]5CC[C@H](n6cc(-n7cc(-c8cnn9ccc(N%10CCOC[C@@H]%10CO)nc89)nn7)c(C(F)F)n6)CC5)CC4)CC3)c21 (some centres unmarked) [Example 174]	< 10	> 70	
Cn1c(=O)n(C2CCC(=O)NC2=O)c2cccc(N3CCC(N4CCN(C[C@H]5CC[C@H](n6cc(-n7cc(-c8cnn9ccc(N%10CCO[C@@H](CO)C%10)nc89)nn7)c(C(F)F)n6)CC5)CC4)CC3)c21 (some centres unmarked) [Example 175]	< 10	> 70	
Cn1c(=O)n(C2CCC(=O)NC2=O)c2cccc(N3CCC4(CCN(CC5CCC(n6cc(-n7cc(-c8cnn9ccc(N%10CCO[C@@H](CO)C%10)nc89)nn7)c(C(F)F)n6)CC5)CC4)CC3)c21 (some centres unmarked) [Example 176]	< 10		A (Dmax ≥ 70%)
Cn1c(=O)n(C2CCC(=O)NC2=O)c2cccc(N3CCC(N4CCN(C[C@H]5CC[C@H](n6cc(-n7cc(-c8cnn9ccc(N%10CCC[C@@H](O)C%10)nc89)nn7)c(C(F)F)n6)CC5)CC4)CC3)c21 (some centres unmarked) [Example 247]	< 10	> 70	
Cn1c(=O)n(C2CCC(=O)NC2=O)c2cccc(N3CCC(CN4CCC5(CCC(n6cc(-n7cc(-n8ccc9cc(C(N)=O)cnc98)nn7)c(C(F)F)n6)CC5)CC4)CC3)c21 (centres unmarked) [Example 286]	> 30	< 60	
C[C@H]1CN(c2cccc3c2n(C)c(=O)n3C2CCC(=O)NC2=O)CCN1C[C@H]1CC[C@H](n2cc(-n3cc(-c4cnn5ccc(N6CCC[C@H](O)C6)nc45)nn3)c(C(F)F)n2)CC1 (stereo partly drawn) [Example 287, 3-(4-((S)-4-(((1R,4S)-4-(3-(difluoromethyl)-4-(4-(5-((S)-3-hydroxypiperidin-1-yl)pyrazolo[1,5-a]pyrimidin-3-yl)-1H-1,2,3-triazol-1-yl)-1H-pyrazol-1-yl)cyclohexyl)methyl)-3-methylpiperazin-1-yl)-3-methyl-2-oxo-2,3-dihydro-1H-benzo[d]imidazol-1-yl)piperidine-2,6-dione]	< 10	> 70	
Cn1c(=O)n(C2CCC(=O)NC2=O)c2cccc(N3CCC(CN4CCC5(CCC(n6cc(-n7cc(-c8cnn9ccc(N%10CCC[C@H](O)C%10)nc89)nn7)c(C(F)F)n6)CC5)CC4)CC3)c21 (some centres unmarked) [Example 290]	< 10	> 70	
C[C@H]1CN(C2CCN(c3cccc4c3n(C)c(=O)n4C3CCC(=O)NC3=O)CC2)CCN1C[C@H]1CC[C@H](n2cc(-n3cc(-c4cnn5ccc(N6CCC[C@H](O)C6)nc45)nn3)c(C(F)F)n2)CC1 (stereo partly drawn) [Example 291, 3-(4-(4-((S)-4-(((1R,4S)-4-(3-(difluoromethyl)-4-(4-(5-((S)-3-hydroxypiperidin-1-yl)pyrazolo[1,5-a]pyrimidin-3-yl)-1H-1,2,3-triazol-1-yl)-1H-pyrazol-1-yl)cyclohexyl)methyl)-3-methylpiperazin-1-yl)piperidin-1-yl)-3-methyl-2-oxo-2,3-dihydro-1H-benzo[d]imidazol-1-yl)piperidine-2,6-dione]	< 10	> 70	
C[C@@H]1CN(C2CCN(c3cccc4c3n(C)c(=O)n4C3CCC(=O)NC3=O)CC2)CCN1C[C@H]1CC[C@H](n2cc(-n3cc(-c4cnn5ccc(N6CCC[C@H](O)C6)nc45)nn3)c(C(F)F)n2)CC1 (some centres unmarked) [Example 292]	< 10	> 70	
Cn1nc(C2CCC(=O)NC2=O)c2cccc(N3CCC(N4CCN(C[C@H]5CC[C@H](n6cc(-n7cc(-c8cnn9ccc(N%10CCC[C@H](O)C%10)nc89)nn7)c(C(F)F)n6)CC5)CC4)CC3)c21 (some centres unmarked) [Example 293]	< 10	> 70	
C[C@@H]1CN(C[C@H]2CC[C@H](n3cc(-n4cc(-c5cnn6ccc(N7CCC[C@H](O)C7)nc56)nn4)c(C(F)F)n3)CC2)CCN1C1CCN(c2cccc3c2n(C)c(=O)n3C2CCC(=O)NC2=O)CC1 (stereo partly drawn) [Example 294, 3-(4-(4-((R)-4-(((1R,4R)-4-(3-(difluoromethyl)-4-(4-(5-((S)-3-hydroxypiperidin-1-yl)pyrazolo[1,5-a]pyrimidin-3-yl)-1H-1,2,3-triazol-1-yl)-1H-pyrazol-1-yl)cyclohexyl)methyl)-2-methylpiperazin-1-yl)piperidin-1-yl)-3-methyl-2-oxo-2,3-dihydro-1H-benzo[d]imidazol-1-yl)piperidine-2,6-dione]	< 10	> 70	
C[C@H]1CC2(CCN(c3cccc4c3n(C)c(=O)n4C3CCC(=O)NC3=O)CC2)CN1C[C@H]1CC[C@H](n2cc(-n3cc(-c4cnn5ccc(N6CCC[C@H](O)C6)nc45)nn3)c(C(F)F)n2)CC1 (stereo partly drawn) [Example 295, 3-(4-((S)-2-(((1R,4S)-4-(3-(difluoromethyl)-4-(4-(5-((S)-3-hydroxypiperidin-1-yl)pyrazolo[1,5-a]pyrimidin-3-yl)-1H-1,2,3-triazol-1-yl)-1H-pyrazol-1-yl)cyclohexyl)methyl)-3-methyl-2,8-diazaspiro[4.5]dec-8-yl)-3-methyl-2-oxo-2,3-dihydro-1H-benzo[d]imidazol-1-yl)piperidine-2,6-dione]	> 30	> 70	
C[C@@H]1CC2(CCN(c3cccc4c3n(C)c(=O)n4C3CCC(=O)NC3=O)CC2)CN1C[C@H]1CC[C@H](n2cc(-n3cc(-c4cnn5ccc(N6CCC[C@H](O)C6)nc45)nn3)c(C(F)F)n2)CC1 (some centres unmarked) [Example 296]	10 to 30	> 70	
